Laboratory results as given in US5385922A, “Thiazolidine derivatives” (Cedona Pharmaceuticals B.V., priority 1990, dated 1995).
Structures can show the parent of a compound that is named as a salt. Where two headings read alike, the source gives them in different places.

How the values were obtained:
contracted rat aorta = assay: In vitro rat aorta assay: relaxation of aorta strips contracted with phenylephrine; assay type: cell-based; conditions: read-out: EC50 (mean): concentration at which residual contraction is 50% of maximum
Description: Strips of thoracial rat aortae (without aortic arch, helically cut; length 1-1.5 cm; width about 2 mm) were place in an organ bath [20 ml; Krebs Ringer medium bubbled with O2 /CO2 (95/5%) at 37° C.]. A resting tension of 0.5 g was applied and the preparations were equilibrated during 100 min (fresh buffer solution every 20 min). The strips were isotonically contracted with 10^-7 M phenylephrine.
Drug-induced relaxation was tested at increasing concentration (half log steps), till maximal or full relaxation (corresponding to basal precontraction value of organ length) had been reached.
Responses were calculated as change in organ length relatively to maximal displacement by contraction, EC50 values corresponding to the drug concentration at which residual contraction is 50% of maximum.

arterial blood pressure = assay: Anesthetized rabbit experiments: arterial blood pressure and heart rate after infusion; assay type: in vivo, New Zealand white rabbits; note: key: Inactive: No decrease or decrease less than 5%; Active: Decrease between 5 and 40%; Very Active: Decrease greater than 40%
Description: In the anesthetized rabbits, the decrease of arterial blood pressure and the effect on the heart rate after infusion of the test compounds was determined.
New Zealand white rabbits (2.5-3 kg) were anesthetized (30 mg×kg^-1 pentobarbitone, i.v., supplemental doses as needed). Tracheotomy was performed, and an intra-tracheal cannula was inserted. No artificial ventilation was applied and body temperature was maintained at 37°-38° C.
Left ventricular pressure (LVP) was measured (Millar Mikro-Tip catheter via the right carotid artery with transducer in the left ventricle). The LVP signal was differentiated electronically to obtain the rate of change of LVP (LV dP/dt). The heart rate (HR) was derived from the LVP pulse signal. The jugular vein was cannulated for infusion of the test compounds. Aortic blood pressure (SAP and DAP) was monitored (Gould-Statham pressure transducer) by inserting a polyethylene catheter filled with heparin (50 IU×ml^-1) through the femoral artery into the abdominal aorta. Heparin (150 IU×kg^-1, i.v.) was administered to prevent blood clotting.
After completion of surgical procedures, the rabbits were allowed to recover for 15 minutes before drug administration was started.
Drugs were infused at constant rate (0.5 ml×min^-1) for 10 minutes at various doses, resulting in a typical dose range of 2.0, 20.0 and 200 μg×kg^-1 ×min^-1 (2.5 kg rabbit).
Due to poor solubility, 1 mg×ml^-1 solutions of all the compounds tested were prepared in Intralipid® 10%, containing 10% (v/v) dimethyl sulfoxide (DMSO). […] At the infusion of lower doses, the 1 mg×ml^-1 stock solutions were diluted with Intralipid® 10%.
The presented data are based on the effects obtained at the end of the 10 min infusion period at the highest dose tested (150-200 μg×kg^-1 ×min^-1). The indicated ratings are referring to the effects (decrease, defined as percentage of basal value before infusion of the drug) on arterial blood pressure as follows: […]

[1] = rat aorta strips contracted with 10^-7 M phenylephrine
[2] = anesthetized rabbit, end of 10 min infusion at highest dose tested (150-200 μg×kg^-1×min^-1), decrease as percentage of basal value

How did the EC50 (contracted rat aorta; [1]) turn out when `CCCCC1SCC(C(=O)OC2COC3C(O[N+](=O)[O-])COC23)N1C(=O)c1ccccc1` (stereo not shown) [Example II, N-benzoyl-4-[(5-nitroxyisosorbide)carbonyl]-2-butylthiazolidine] was run?
The EC50 was 740 nM.

For `CC(=O)N1C(C(=O)NCCO[N+](=O)[O-])CSC1c1ccccc1` (stereo not shown) [Example VIII, N-acetyl-2-phenyl-4-[(2-nitroxyethyl)aminocarbonyl]thiazolidine], which EC50 (contracted rat aorta; [1]) is on record?
Its EC50 is 1880 nM.

For `CC(=O)N1C(C(=O)O)CSC1c1ccccc1OCCO[N+](=O)[O-]` (stereo not shown) [Example XVII, N-acetyl-4-carboxy-2-[2-(2-nitroxyethoxy)phenyl]thiazolidine], which EC50 (contracted rat aorta; [1]) is on record?
The EC50 was 720 nM.

`CC1(C)SC(c2ccccc2OCCO[N+](=O)[O-])N[C@H]1C(=O)O` (stereo partly shown) [XXVI, 4-Carboxy-5,5-dimethyl-2-[(2-nitroxyethoxy)phenyl]thiazolidine] was tested. Which “Activity with regard to the lowering of blood pressure” value (“Activity with regard to the lowering” below) (arterial blood pressure; [2]) did it give?
Its value is “Active”.

What about the EC50 (contracted rat aorta; [1]) of the same compound?
The EC50 was 57 nM.

How did the “Activity with regard to the lowering” value (arterial blood pressure; [2]) turn out when `O=[N+]([O-])OCCOc1ccccc1C1NCCS1` (stereo not shown) [XXVII, 2-[(2-Nitroxyethoxy)phenyl]thiazolidine oxalate hydrate] was run?
The value was “Active”.

What about the EC50 (contracted rat aorta; [1]) of the same compound?
Its EC50 is 6.7 nM.

For `CCOc1cccc(C2NC(C(=O)O)CS2)c1OCCO[N+](=O)[O-]` (stereo not shown) [Example XII, 4-Carboxy-2-[3-ethoxy-2-(2-nitroxyethoxy)phenyl]thiazolidine], which EC50 (contracted rat aorta; [1]) is on record?
Its EC50 is 650 nM.

With `O=C(O)C1CSC(c2ccc(OCCO[N+](=O)[O-])cc2)N1` (stereo not shown) [Example XIII, 4-Carboxy-2-[4-(2-nitroxyethoxy)phenyl]thiazolidine] as the compound, how does the “Activity with regard to the lowering” value (arterial blood pressure; [2]) read?
Its value is “Active”.

What about the EC50 (contracted rat aorta; [1]) of the same compound?
The EC50 was 22 nM.

Which “Activity with regard to the lowering” value (arterial blood pressure; [2]) does the source give for `COc1ccc(OCCO[N+](=O)[O-])c(C2NC(C(=O)O)CS2)c1` (stereo not shown) [Example XV, 4-Carboxy-2-[5-methoxy-2-(2-nitroxyethoxy)phenyl]thiazolidine] here?
The value was “Active”.

What about the EC50 (contracted rat aorta; [1]) of the same compound?
Its EC50 is 7 nM.

How did the EC50 (contracted rat aorta; [1]) turn out when `O=C(NCCO[N+](=O)[O-])c1ccc(C2NC(C(=O)O)CS2)cc1` (stereo not shown) [Example V, 4-Carboxy-2-{4-[(2-nitroxyethyl)aminocarbonyl]phenyl}thiazolidine] was run?
Its EC50 is 330 nM.

For `O=[N+]([O-])OCCOc1cccc(C2NCCS2)c1` (stereo not shown) [XIX, 2-[3-(2-Nitroxyethoxy)phenyl]thiazolidine×HCl], which EC50 (contracted rat aorta; [1]) is on record?
The EC50 was 9.7 nM.

What does the source list for “N-benzoyl-2-butyl-5,5-dimethyl-4-[(5-nitroxyisosorbide)carbonyl]thiazolidine [Example III]”?
Activity with regard to the lowering of blood pressure (arterial blood pressure; [2]): Active; EC50 (contracted rat aorta; [1]): 98 nM

`CC(C)(CO[N+](=O)[O-])C(=O)N1C(C(=O)O)CSC1c1ccccc1` (stereo not shown) [XXXIII, 4-Carboxyl-N-(2,2-dimethyl-3-nitroxypropionyl)-2-phenylthiazolidine] was tested. Which EC50 (contracted rat aorta; [1]) did it give?
The EC50 was 2770 nM.

For `CC(=O)N1C(CCc2ccccc2)SCC1C(=O)OC[C@H]1CC[C@H](CO[N+](=O)[O-])CC1` (stereo partly shown) [Example XXII, N-acetyl-2-(2-phenylethyl)-4-[(4-nitroxymethylcyclohexyl)methoxycarbonyl]thiazolidine], which “Activity with regard to the lowering” value (arterial blood pressure; [2]) is on record?
The value was “Active”.

And the EC50 (contracted rat aorta; [1])?
Its EC50 is 23 nM.

`COc1cc(C2NC(C(=O)O)CS2)cc(Br)c1OCCO[N+](=O)[O-]` (stereo not shown) [XXIII, 2-[3-Bromo-5-methoxy-4-(2-nitroxyethoxy)phenyl]-4-carboxythiazolidine] was tested. Which EC50 (contracted rat aorta; [1]) did it give?
The EC50 was 820 nM.

Which EC50 (contracted rat aorta; [1]) does the source give for `O=C(O)C1CSC(c2ccccc2OCCCO[N+](=O)[O-])N1` (stereo not shown) [Example XXXII, 4-Carboxy-2-[2-(3-nitroxypropoxy)phenyl]thiazolidine] here?
The EC50 was 37 nM.

Which EC50 (contracted rat aorta; [1]) does the source give for `CCOC(=O)C1CSC(c2ccc(OCC(=O)NCCO[N+](=O)[O-])c(OC)c2)N1` (stereo not shown) [Example XI, 4-Ethoxycarbonyl-2-{[3-methoxy-4-(2-nitroxyethyl)aminocarbonylmethoxy]phenyl}-thiazolidine hydrochloride] here?
The EC50 was 270 nM.

`CCOC(=O)[C@@H]1CSC(c2ccccc2OCCO[N+](=O)[O-])N1` (stereo partly shown) [XXVIII, 4-Ethoxycarbonyl-2-[2-(2-nitroxyethoxy)phenyl]thiazolidine 4-toluenesulphonate] was tested. Which “Activity with regard to the lowering” value (arterial blood pressure; [2]) did it give?
The value was “Active”.

What about the EC50 (contracted rat aorta; [1]) of the same compound?
The EC50 was 9.4 nM.

Which EC50 (contracted rat aorta; [1]) does the source give for `O=C(O)C1CSC(c2cccc(OCCO[N+](=O)[O-])c2)N1` (stereo not shown) [Example XVIII, 4-Carboxy-2-[3-(2-nitroxyethoxy)phenyl]thiazolidine] here?
The EC50 was 47 nM.

`CCOC(=O)C1CSC(c2ccc(C(=O)NCCO[N+](=O)[O-])cc2)N1` (stereo not shown) [Example VII, 4-Ethoxycarbonyl-2-{4-[(2-nitroxyethyl)aminocarbonyl]phenyl}thiazolidine×HCl] was tested. Which EC50 (contracted rat aorta; [1]) did it give?
The EC50 was 20 nM.

“4-Carboxy-2-[3-4-(2-nitroxyethoxy)phenyl]thiazolidine [Example XXXV]” was tested. Which EC50 (contracted rat aorta; [1]) did it give?
Its EC50 is 54 nM.

For `CCCCC1SCC(C(=O)OC2COC3C(O[N+](=O)[O-])COC23)N1S(=O)(=O)c1ccc(C)cc1` (stereo not shown) [Example I, 2-Butyl-N-(4-methylbenzenesulphonyl)-4-[(5-nitroxyisosorbide)carbonyl]thiazolidine], which EC50 (contracted rat aorta; [1]) is on record?
The EC50 was 750 nM.

`O=C(O)C1CSC(c2ccccc2OC[C@H]2CC[C@H](CO[N+](=O)[O-])CC2)N1` (relative stereo) [Example XXIX, 4-Carboxy-2-(2-{[4-nitroxymethyl-(trans)-cyclohexyl]methoxy}phenyl)thiazolidine] was tested. Which “Activity with regard to the lowering” value (arterial blood pressure; [2]) did it give?
Its value is “Active”.

And the EC50 (contracted rat aorta; [1])?
The EC50 was 21 nM.

Which “Activity with regard to the lowering” value (arterial blood pressure; [2]) does the source give for `O=C(O)C1CSC(c2ccccc2OCCO[N+](=O)[O-])N1` (stereo not shown) [Example XVI, 4-Carboxy-2-[2-(2-nitroxyethoxy)phenyl]thiazolidine] here?
The value was “Active”.

With `CC(C)(COc1ccccc1C1NC(C(=O)O)CS1)CO[N+](=O)[O-]` (stereo not shown) [Example XXX, 4-Carboxy-2-[2-(2,2-dimethyl-3-nitroxypropoxy)phenyl]thiazolidine] as the compound, how does the “Activity with regard to the lowering” value (arterial blood pressure; [2]) read?
The value was “Active”.

What about the EC50 (contracted rat aorta; [1]) of the same compound?
The EC50 was 102 nM.

For “2-Butyl-5,5-dimethyl-N-(4-methylbenzenesulphonyl)-4-[(5-nitroxyisosorbide)carbonyl]thiazolidine [Example IV]”, which EC50 (contracted rat aorta; [1]) is on record?
The EC50 was 9500 nM.

Which “Activity with regard to the lowering” value (arterial blood pressure; [2]) does the source give for `CC(COc1ccccc1C1NC(C(=O)O)CS1)O[N+](=O)[O-]` (stereo not shown) [XXXVI, 4-Carboxy-2-[2-(2-nitroxypropoxy)phenyl]thiazolidine] here?
The value was “Active”.

What about the EC50 (contracted rat aorta; [1]) of the same compound?
Its EC50 is 48 nM.

How did the EC50 (contracted rat aorta; [1]) turn out when `COc1cc(C2NC(C(=O)O)CS2)ccc1OCC(=O)NCCO[N+](=O)[O-]` (stereo not shown) [Example X, 4-Carboxy-2{3-methoxy-4-[(2-nitroxyethyl)aminocarbonylmethoxy]phenyl}thiazolidine] was run?
Its EC50 is 390 nM.

Which EC50 (contracted rat aorta; [1]) does the source give for `O=C(O)C1CSC(c2ccccc2OCCCCO[N+](=O)[O-])N1` (stereo not shown) [XXXIV, 4-Carboxy-2-[2-(4-nitroxybutoxy)phenyl]thiazolidine] here?
Its EC50 is 17 nM.

With `O=C(COc1ccccc1C1NC(C(=O)O)CS1)NCCO[N+](=O)[O-]` (stereo not shown) [Example IX, 4-Carboxy-2-{2-[(2-nitroxyethyl)aminocarbonylmethoxyl]phenyl}thiazolidine] as the compound, how does the EC50 (contracted rat aorta; [1]) read?
The EC50 was 700 nM.

For `COc1cccc(C2NC(C(=O)O)CS2)c1OCCO[N+](=O)[O-]` (stereo not shown) [Example XIV, 4-Carboxyl-2-[3-methoxy-2-(2-nitroxyethoxy)phenyl]thiazolidine], which EC50 (contracted rat aorta; [1]) is on record?
The EC50 was 230 nM.

How did the “Activity with regard to the lowering” value (arterial blood pressure; rabbit, in vivo) turn out when `O=C(O)C1CSC(c2cc([N+](=O)[O-])ccc2OCCO[N+](=O)[O-])N1` (stereo not shown) [Example XXI, 4-Carboxy-2-[5-nitro-2-(2-nitroxyethoxy)phenyl]thiazolidine] was run?
Its value is “Active”.

And the EC50 (contracted rat aorta; Rattus norvegicus)?
Its EC50 is 25 nM.

With `O=C(O)C1CSC(c2cc(Cl)ccc2OCCO[N+](=O)[O-])N1` (stereo not shown) [Example XXV, 4-Carboxy-2-[5-chloro-2-(2-nitroxyethoxy)phenyl]thiazolidine] as the compound, how does the “Activity with regard to the lowering” value (arterial blood pressure; [2]) read?
Its value is “Active”.

What about the EC50 (contracted rat aorta; [1]) of the same compound?
The EC50 was 20 nM.

`CC(=O)N1C(C(=O)NCCO[N+](=O)[O-])CSC1c1ccccc1C(=O)O` (stereo not shown) [Example VI, N-acetyl-2-(2-carboxyphenyl)-4-[(2-nitroxyethyl)aminocarbonyl]thiazolidine] was tested. Which EC50 (contracted rat aorta; [1]) did it give?
The EC50 was 1620 nM.

With `O=C(COc1ccc(C2NC(C(=O)O)CS2)cc1)NCCO[N+](=O)[O-]` (stereo not shown) [Example XXIV, 4-Carboxy-2-{4-[(2-nitroxyethyl)aminocarbonylmethoxy]phenyl}thiazolidine] as the compound, how does the EC50 (contracted rat aorta; [1]) read?
Its EC50 is 900 nM.
